# In US8012998B2, “Pyrrolidine aryl-ether as NK-3 receptor antagonists” (Hoffmann—LA Roche Inc., priority 2007, dated 2011):
# Biological target: T1, human NK3 receptor (Homo sapiens, UniProt P29371)
# T1 construct: expressed in transfected cells; host or cells: HEK293 cells (transient expression), membrane preparation
# T1 sequence (P29371 1-465): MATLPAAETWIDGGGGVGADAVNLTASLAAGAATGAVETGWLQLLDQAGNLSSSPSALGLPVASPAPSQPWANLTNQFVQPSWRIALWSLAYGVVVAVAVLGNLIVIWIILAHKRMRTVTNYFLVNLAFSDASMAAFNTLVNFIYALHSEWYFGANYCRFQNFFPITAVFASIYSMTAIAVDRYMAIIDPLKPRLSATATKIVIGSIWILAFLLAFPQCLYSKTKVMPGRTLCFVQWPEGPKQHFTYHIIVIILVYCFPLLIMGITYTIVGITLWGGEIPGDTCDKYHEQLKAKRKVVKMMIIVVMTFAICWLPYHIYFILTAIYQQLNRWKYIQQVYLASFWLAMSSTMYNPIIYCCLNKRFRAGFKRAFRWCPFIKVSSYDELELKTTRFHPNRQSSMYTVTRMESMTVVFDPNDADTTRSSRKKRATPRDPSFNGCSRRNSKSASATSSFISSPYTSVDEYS
# Assay: [3H]SR142801 competition binding assay (hNK3 receptor binding)
# Settings: [3H]SR142801 radioligand; membranes from HEK293 cells transiently expressing recombinant human NK3 receptor; Ki by Cheng-Prussoff; read-out: KiNK3 h
# Method: [^3H]SR^142801 Competition Binding Assay
# hNK3 receptor binding experiment were performed using [^3H]SR^142801 (Catalog No. TRK1035, specific activity: 74.0 Ci/mmol, Amersham, GE Healthcare UK limited, Buckinghamshire, UK) and membrane isolated from HEK293 cells transiently expressing recombinant human NK3 receptor. After thawing, the membrane homogenates were centrifuged at 48,000×g for 10 min at 4° C., the pellets were resuspended in the 50 mM Tris-HCl, 4 mM MnCl2, 1 μM phosphoramidon, 0.1% BSA binding buffer at pH 7.4 to a final assay concentration of 5 μg protein/well. […] At the end of the incubation, membranes were filtered onto unitfilter (96-well white microplate with bonded GF/C filter preincubated 1 h in 0.3% PEI +0.3% BSA, Packard BioScience, Meriden, Conn.) with a Filtermate 196 harvester (Packard BioScience) and washed 4 times with ice-cold 50 mM Tris-HCl, pH 7.4 buffer. Nonspecific binding was measured in the presence of 10 μM SB222200 for both radioligands. The radioactivity on the filter was counted (5 min) on a Packard Top-count microplate scintillation counter with quenching correction after addition of 45 μl of microscint 40 (Canberra Packard S.A., Zutrich, Switzerland) and shaking for 1 h. Inhibition curves were fitted according to the Hill equation: y=100/(1+(x/IC50)^nH), where nH=slope factor using Excel-fit 4 software (Microsoft). IC50 values were derived from the inhibition curve and the affinity constant (Ki) values were calculated using the Cheng-Prussoff equation Ki=IC50/(1+[L]/KD) where [L] is the concentration of radioligand and KD is its dissociation constant at the receptor, derived from the saturation isotherm. All experiments were performed in duplicate and the mean ± standard error (SEM) of the individual Ki values was calculated.
row,SMILES,Ki [nM]
1,"C[C@@H](Oc1ccc(C(F)(F)F)cc1)[C@@H]1CN(C(=O)c2ccc(C#N)cc2)C[C@H]1c1ccc(Cl)c(Cl)c1 (racemic) [Example 2, 4-{(3RS,4SR)-3-(3,4-Dichloro-phenyl)-4-[(RS)-1-(4-trifluoromethyl-phenoxy)-ethyl]-pyrrolidine-1-carbonyl}-benzonitrile]",35.5
2,"Cc1ccc(C(=O)N2C[C@@H]([C@@H](C)Oc3ccc(C(F)(F)F)cc3)[C@H](c3ccc(Cl)c(Cl)c3)C2)cn1 (racemic) [Example 6, {(3RS,4SR)-3-(3,4-Dichloro-phenyl)-4-[(RS)-1-(4-trifluoromethyl-phenoxy)-ethyl]-pyrrolidin-1-yl}-(6-methyl-pyridin-3-yl)-methanone]",63.6
3,"COc1ccc(C(=O)N2C[C@@H]([C@@H](C)Oc3ccc(C(F)(F)F)cc3)[C@H](c3ccc(Cl)c(Cl)c3)C2)cn1 (racemic) [Example 9, {(3RS,4SR)-3-(3,4-Dichloro-phenyl)-4-[(RS)-1-(4-trifluoromethyl-phenoxy)-ethyl]-pyrrolidin-1-yl}-(6-methoxy-pyridin-3-yl)-methanone]",79.8
4,"C[C@@H](Oc1ccc(Cl)cn1)[C@@H]1CN(C(=O)c2ccc(C#N)cc2)C[C@H]1c1ccc(Cl)c(Cl)c1 (racemic) [Example 10, 4-[(3SR,4RS)-3-[(RS)-1-(5-Chloro-pyridin-2-yloxy)-ethyl]-4-(3,4-dichloro-phenyl)-pyrrolidine-1-carbonyl]-benzonitrile]",3.2
5,"COc1ccc(C(=O)N2C[C@@H]([C@@H](C)Oc3ccc(Cl)cn3)[C@H](c3ccc(Cl)c(Cl)c3)C2)cn1 (racemic) [Example 11, [(3SR,4RS)-3-[(RS)-1-(5-Chloro-pyridin-2-yloxy)-ethyl]-4-(3,4-dichloro-phenyl)-pyrrolidin-1-yl]-(6-methoxy-pyridin-3-yl)-methanone]",11.8
6,"COc1ncc(C(=O)N2C[C@@H]([C@@H](C)Oc3ccc(Cl)cn3)[C@H](c3ccc(Cl)c(Cl)c3)C2)cn1 (racemic) [Example 12, [(3SR,4RS)-3-[(RS)-1-(5-Chloro-pyridin-2-yloxy)-ethyl]-4-(3,4-dichloro-phenyl)-pyrrolidin-1-yl]-(2-methoxy-pyrimidin-5-yl)-methanone]",19.4
7,"C[C@@H](Oc1ccc(Cl)cn1)[C@@H]1CN(C(=O)c2ccc(N(C)C)cc2)C[C@H]1c1ccc(Cl)c(Cl)c1 (racemic) [Example 13, [(3SR,4RS)-3-[(RS)-1-(5-Chloro-pyridin-2-yloxy)-ethyl]-4-(3,4-dichloro-phenyl)-pyrrolidin-1-yl]-(4-dimethylamino-phenyl)-methanone]",50
8,"C[C@@H](Oc1ccc(Cl)cn1)[C@@H]1CN(C(=O)c2ccc(F)nc2)C[C@H]1c1ccc(Cl)c(Cl)c1 (racemic) [Example 14, [(3SR,4RS)-3-[(RS)-1-(5-Chloro-pyridin-2-yloxy)-ethyl]-4-(3,4-dichloro-phenyl)-pyrrolidin-1-yl]-(6-fluoro-pyridin-3-yl)-methanone]",27.8
9,"Cc1cc(C(=O)N2C[C@@H]([C@@H](C)Oc3ccc(Cl)cn3)[C@H](c3ccc(Cl)c(Cl)c3)C2)ccn1 (racemic) [Example 15, [(3SR,4RS)-3-[(RS)-1-(5-Chloro-pyridin-2-yloxy)-ethyl]-4-(3,4-dichloro-phenyl)-pyrrolidin-1-yl]-(2-methyl-pyridin-4-yl)-methanone]",6.3
10,"Cc1ccc(C(=O)N2C[C@@H]([C@@H](C)Oc3ccc(Cl)cn3)[C@H](c3ccc(Cl)c(Cl)c3)C2)cn1 (racemic) [Example 16, [(3SR,4RS)-3-[(RS)-1-(5-Chloro-pyridin-2-yloxy)-ethyl]-4-(3,4-dichloro-phenyl)-pyrrolidin-1-yl]-(6-methyl-pyridin-3-yl)-methanone]",9.2
11,"Cc1ncc(C(=O)N2C[C@@H]([C@@H](C)Oc3ccc(Cl)cn3)[C@H](c3ccc(Cl)c(Cl)c3)C2)cn1 (racemic) [Example 17, [(3SR,4RS)-3-[(RS)-1-(5-Chloro-pyridin-2-yloxy)-ethyl]-4-(3,4-dichloro-phenyl)-pyrrolidin-1-yl]-(2-methyl-pyrimidin-5-yl)-methanone]",11.8
12,"COc1cc(C(=O)N2C[C@@H]([C@@H](C)Oc3ccc(Cl)cn3)[C@H](c3ccc(Cl)c(Cl)c3)C2)ccn1 (racemic) [Example 18, [(3SR,4RS)-3-[(RS)-1-(5-Chloro-pyridin-2-yloxy)-ethyl]-4-(3,4-dichloro-phenyl)-pyrrolidin-1-yl]-(2-methoxy-pyridin-4-yl)-methanone]",22.7
13,"C[C@@H](Oc1ccc(Cl)cn1)[C@@H]1CN(C(=O)c2ccc(N(C)C)nc2)C[C@H]1c1ccc(Cl)c(Cl)c1 (racemic) [Example 19, [(3SR,4RS)-3-[(RS)-1-(5-Chloro-pyridin-2-yloxy)-ethyl]-4-(3,4-dichloro-phenyl)-pyrrolidin-1-yl]-(6-dimethylamino-pyridin-3-yl)-methanone]",5.8
14,"C[C@@H](Oc1ccc(Cl)cn1)[C@@H]1CN(C(=O)c2ccc(N)nc2)C[C@H]1c1ccc(Cl)c(Cl)c1 (racemic) [Example 20, (6-Amino-pyridin-3-yl)-[(3SR,4RS)-3-[(RS)-1-(5-chloro-pyridin-2-yloxy)-ethyl]-4-(3,4-dichloro-phenyl)-pyrrolidin-1-yl]-methanone]",17
15,"COc1ccc(C(=O)N2C[C@@H]([C@@H](C)Oc3ncc(F)cn3)[C@H](c3ccc(Cl)c(Cl)c3)C2)cn1 (racemic) [Example 25, {(3RS,4SR)-3-(3,4-Dichloro-phenyl)-4-[(RS)-1-(5-fluoro-pyrimidin-2-yloxy)-ethyl]-pyrrolidin-1-yl}-(6-methoxy-pyridin-3-yl)-methanone]",63.3
16,"COc1ccc(C(=O)N2C[C@@H]([C@@H](C)Oc3ccc(F)cn3)[C@H](c3ccc(Cl)c(Cl)c3)C2)cn1 (racemic) [Example 26, {(3RS,4SR)-3-(3,4-Dichloro-phenyl)-4-[(RS)-1-(5-fluoro-pyridin-2-yloxy)-ethyl]-pyrrolidin-1-yl}-(6-methoxy-pyridin-3-yl)-methanone]",66
17,"Cc1cc(C(=O)N2C[C@@H]([C@@H](C)Oc3ccc(Cl)cn3)[C@H](c3ccc(Cl)c(Cl)c3)C2)c(C)o1 (racemic) [Example 28, [(3SR,4RS)-3-[(RS)-1-(5-Chloro-pyridin-2-yloxy)-ethyl]-4-(3,4-dichloro-phenyl)-pyrrolidin-1-yl]-(2,5-dimethyl-furan-3-yl)-methanone]",59
18,"C[C@@H](Oc1ccc(Cl)cn1)[C@@H]1CN(C(=O)c2ccc(CC#N)o2)C[C@H]1c1ccc(Cl)c(Cl)c1 (racemic) [Example 30, {5-[(3SR,4RS)-3-[(RS)-1-(5-Chloro-pyridin-2-yloxy)-ethyl]-4-(3,4-dichloro-phenyl)-pyrrolidine-1-carbonyl]-furan-2-yl}-acetonitrile]",80
19,"Cc1cc(C(=O)N2C[C@@H]([C@@H](C)Oc3ccc(Cl)cn3)[C@H](c3ccc(Cl)c(Cl)c3)C2)c(C)n1C1CC1 (racemic) [Example 31, [(3SR,4RS)-3-[(RS)-1-(5-Chloro-pyridin-2-yloxy)-ethyl]-4-(3,4-dichloro-phenyl)-pyrrolidin-1-yl]-(1-cyclopropyl-2,5-dimethyl-1H-pyrrol-3-yl)-methanone]",5
20,"COc1ccc(C(=O)N2C[C@@H]([C@@H](C)Oc3ccc(C#N)cn3)[C@H](c3ccc(Cl)c(Cl)c3)C2)cn1 (racemic) [Example 34, 6-{(RS)-1-[(3SR,4RS)-4-(3,4-Dichloro-phenyl)-1-(6-methoxy-pyridine-3-carbonyl)-pyrrolidin-3-yl]-ethoxy}-nicotinonitrile]",47
21,"C[C@@H](Oc1ccc(Cl)cn1)[C@@H]1CN(C(=O)c2ccc(C#N)nc2)C[C@H]1c1ccc(Cl)c(Cl)c1 (racemic) [Example 35, 5-[(3SR,4RS)-3-[(RS)-1-(5-Chloro-pyridin-2-yloxy)-ethyl]-4-(3,4-dichloro-phenyl)-pyrrolidine-1-carbonyl]-pyridine-2-carbonitrile]",2
22,"Cc1ncc(C(=O)N2C[C@H]([C@H](C)Oc3ccc(C#N)cn3)[C@@H](c3ccc(Cl)c(Cl)c3)C2)c(C)n1 (racemic) [Example 36, 6-{(SR)-1-[(3RS,4SR)-4-(3,4-Dichloro-phenyl)-1-(2,4-dimethyl-pyrimidine-5-carbonyl)-pyrrolidin-3-yl]-ethoxy}-nicotinonitrile]",84
